# Assay results reported in patent publication US9951226B2, “Compound based on cyanine scaffold for diagnosis sepsis by selectively detect glutathione” (EWHA UNIVERSITY—INDUSTRY COLLABORATION FOUNDATION, priority 2014, dated 2018).
# How the values were obtained:
# neutrophils = assay: Capacity of diagnosing sepsis: bone marrow neutrophils infected with GFP tagged Pseudomonas Aeruginosa 01 (PA01); type: cell-based, mouse
# Method: Neutrophils were extracted from the bone marrow of C57BL/6 mouse (7˜8 weeks old, female, Jackson Laboratory). The cells were infected with green fluorescent protein (GFP) tagged Pseudomonas Aeruginosa 01 (PA01) that is the causing bacteria of sepsis. 24 hours later, 10 μM of the compound prepared in Example 2 was added thereto, followed by reaction at 37° C. for 20 minutes. At this time, the emitting filter with the excitation wavelength of 635 nm and the band-path (BP) of 655˜755 nm was used.
# C57BL/6 mouse = assay: Detection of glutathione in a mouse model with N-methylmaleimide (NMM), IVIS imaging; type: in vivo
# Method: 200 μL of HEPES (4-(2-hydroxyethyl)piperazine-1-ethanesulfonic acid) buffer (10 mM, pH=7.4) containing 20 mM of N-methylmaleimide (NMM) known as a thiol blocker was administered to each C57BL/6 mouse (7˜8 weeks old, female, Jackson Laboratory) via intravenous injection. 20 minutes later, 200 μL of HEPES (4-(2-hydroxyethyl)piperazine-1-ethanesulfonic acid) buffer (10 mM, pH=7.4) containing 50 mM of the compound prepared in Example 2 was administered to the mouse via intravenous injection. 20 minutes later, the strength of fluorescence was observed by using the epifluorescence mode of In Vivo Imaging System (IVIS) spectrum (Caliper LifeSciences, USA) equipped with the filter having the wavelengths of 675 nm and 720 nm [the strength of fluorescence was measured by Living Image Software 4.3.1 (Caliper Life Sciences, USA)].
# HeLa cells = assay: Changes of glutathione concentration in the presence of an oxidant (H2O2), HeLa cells; type: cell-based, human
# Method: 100 μM of H2O2, the oxidant, was treated to HeLa cells prepared in Experimental Example 2 containing glutathione, the anti-oxidant, at 37° C. for 30 minutes to induce the changes of glutathione level. 20 μM of the compound prepared in Example 2 was added thereto, followed by culture at 37° C. for 20 minutes. The cells were washed with DPBS (Dulbecco's Phosphate Buffered Saline) three times to eliminate the remaining compound, followed by imaging with confocal laser scanning microscope (Fluoview 1200, Olympus, Japan). At this time, the emitting filter with the excitation wavelength of 635 nm and the band-path (BP) of 655˜755 nm was used.
# [1] = Glutathione selectivity: absorption/fluorescence spectrum with various amino acids in HEPES buffer; type: biochemical; conditions: 10 μM compound
# Method: 10 μM of the compound prepared in Example 2 was treated to HEPES (4-(2-hydroxyethyl)piperazine-1-ethanesulfonic acid) buffer (10 mM, pH=7.4) containing 10% DMSO and 100 μM of each glutathione, cysteine, homocysteine, dithiothreitol, phenylalanine, histidine, glutamine, lysine, glutamate, glycine, serine, alanine, arginine, methionine, and tyrosine, followed by observation of fluorescence spectrum at 25° C. by using RF-5310/PC fluorescence spectrometer (Shimada, 1 cm quartz cell).
# An experiment was performed by the same manner as described in Experimental Example 3 except that the fragment 1 or the fragment 2 was used instead of the compound prepared in Example 2. […] To disclose the reason in relation to the above, the 3-dimensional structure of each of the compound of Example 1, the compound of Example 2, and the fragment 1 or the fragment 2, was investigated along with band-gap.
# 10 μM of the compound prepared in Example 3 and 100 μM of each endogenous amino acid (alanine, arginine, cysteine, glutamate, glycine, glutathione, homocysteine, histidine, lysine, methionine, serine, and tyrosine) were added to HEPES (4-(2-hydroxyethyl)piperazine-1-ethanesulfonic acid) buffer (10 mM, pH=7.4) containing 10% dimethylsulfoxide (DMSO), followed by observation of absorption spectrum presented through UV-vis sepctra (Scinco 3000 spectrophotometer, 1 cm quartz cell) at 25° C.
# (§1) The following experiment was performed by the same manner as described in Experimental Example <15-1> except that fluorescence spectrum was observed by using RF-5310/PC fluorescence spectrometer (Shimada, 1 cm quartz cell) instead of observing absorption spectrum via UV-vis sepctra (Scinco 3000 spectrophotometer, 1 cm quartz cell) (λex=730 nm, λem=736 nm, slit:10/10 nm).
# [2] = Absorption and fluorescence spectrum according to the concentration of glutathione; type: biochemical
# Method: (§2) 10 μM of the compound prepared in Example 2 and glutathione were added to HEPES (4-(2-hydroxyethyl)piperazine-1-ethanesulfonic acid) buffer (10 mM, pH=7.4) containing 10% dimethylsulfoxide (DMSO) with raising slowly the concentration of glutathione from 0 to 50 μM, during which the changes of absorption spectrum were observed using UV-vis sepctra (Scinco 3000 spectrophotometer, 1 cm quartz cell) at 25° C.
# as §1, with “<4-1>” for “<15-1>”
# as §2, with “Example 3” for “Example 2”, “to 100” for “to 50”
# as §1, with “<16-1>” for “<15-1>”
# [3] = mouse treated with NMM together with the compound
# [4] = 10 μM compound, glutathione not added
# [5] = 10 μM compound, glutathione raised from 0 to 50 μM
structure (smiles),measurement,setting,value
"CCCN1/C(=C/C=C2\CCCC(/C=C/C3=[N+](CCC)c4ccccc4C3(C)C)=C2N2CCN(S(=O)(=O)c3cccc4c(N(C)C)cccc34)CC2)C(C)(C)c2ccccc21.[I-] [Example 2, 2-((E)-2-((E)-3-((E)-2-(3,3-dimethyl-1-propylindolin-2-ylidene)ethylidene)-2-(4-(5-(dimethylamino)naphthalene-1-ylsulfonyl)piperazine-1-yl)cyclohex-1-enyl)binyl)-3,3-dimethyl-1-propyl-3H-indolium iodide]",red fluorescence indicating glutathione level in the red fluorescence channel,"neutrophils; neutrophils infected with GFP tagged PA01, 10 μM compound",reduced
same,red fluorescence in the red fluorescent channel,"neutrophils; neutrophils not-infected with GFP tagged PA01, 10 μM compound",strong red fluorescence was detected
same,"red fluorescence in liver, kidney, lung, and spleen, IVIS spectrum",C57BL/6 mouse; [3],red fluorescence was not observed
same,"red fluorescence of the mouse, IVIS spectrum",C57BL/6 mouse; [3],red fluorescence was not observed
same,"red fluorescence in liver, kidney, lung, and spleen, IVIS spectrum",C57BL/6 mouse; mouse treated with the compound alone,strong red fluorescence was observed
same,"red fluorescence of the mouse, IVIS spectrum","C57BL/6 mouse; mouse treated with the compound alone, intravenous injection, 20 minutes",strong red fluorescence was observed
same,red fluorescence under confocal laser scanning microscope,"HeLa cells; HeLa cells pre-treated with 100 μM H2O2, 20 μM compound",red fluorescence was not observed
same,red fluorescence under confocal laser scanning microscope,"HeLa cells; HeLa cells, 20 μM compound, 20 minutes",strong red fluorescence
same,"reaction to oxidized glutathione, glutathione disulfide (GSSG)","HeLa cells; HeLa cells, H2O2",did not react
same,fluorescence strength near 735 nm,"[1]; 100 μM glutathione, HEPES pH 7.4, 10% DMSO, 25° C.",strong fluorescence strength
same,fluorescence strength at 736 nm,"[1]; 100 μM other amino acids, HEPES pH 7.4, 10% DMSO",very weak fluorescence strength
same,"fluorescence signal at around 736 nm over the time: selectivity among cysteine, homocysteine and glutathione","[1]; glutathione, cysteine, homocysteine, FIG. 5",selectively reacted to glutathione alone
same,absorption strength at 750 nm,[2]; [4],weak absorption strength
same,fluorescence signal at 736 nm,[2]; [4],weak fluorescence signal
same,absorption signal at 750 nm,[2]; [5],getting stronger
same,fluorescence signal at 736 nm,[2]; [5],getting stronger
same,dependence of the reaction on glutathione concentration,[2]; conclusion from absorption and fluorescence spectra,glutathione dose-dependent
